Inconclusive results are not listed. Calls of active or inactive are those of the source.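 The calls were made as follows: active = Green signal of the normal strain falls at least twice as much as red signal of the resistant mutant, with overall culture growth loss under a set limit; inconclusive = no clear call, values can overlap the other calls; inactive = the rest.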 A value given as a limit tells only on which side of the number the result lay.

The assay relates to E. coli WT ribosome GFP fluorescence, mixed culture, 24 h. The experiment in a line: growth inhibition of wild-type GFP E. coli, dose response, h38 mutant RFP, cherry-pick (AID 977622).
Setting [1] is: E. coli mixed culture, 24 h, measured here: total growth OD600.

With `Nc1[nH]c(C(=O)c2ccccc2)c(-c2ccc3c(c2)OCO3)c1C(=O)NCCc1c[nH]c2ccccc12`, the AC50 under setting [1] is more than 100 µM.
`O=C(CCc1nc2ccccc2s1)OCC(=O)c1ccc[nH]1`: the AC50 was > 100 µM (inactive).
In the case of `NS(=O)(=O)c1cccc(NC(=O)c2cccc(-c3ccc(O)cc3)c2)c1`, the AC50 is > 100 µM (inactive). For the same compound, the AC50 under setting [1] was found to be 50.2 µM.
In the case of `CCCCNC(=O)C[C@@H]1C[C@@]2(C(=O)OC)CCCCC=C2N(Cc2ccccc2)C1=O`, the AC50 was > 100 µM (inactive). This compound displayed an AC50 under setting [1] of more than 100 µM.
For `O=C(NCCc1ccc(Cl)cc1)c1ccc2nc[nH]c2c1`, the AC50 was > 100 µM (inactive).
Turning to `Cc1cc(C(=O)OCC(=O)Nc2cccc(S(N)(=O)=O)c2)c2ccccc2n1`, the AC50 is > 100 µM (inactive). Moreover, the AC50 under setting [1] is more than 100 µM.
Consider `CO[C@@H]1CN(C)C(=O)c2cc(NC(=O)C3CCCC3)ccc2OC[C@@H](C)N(C(=O)Nc2ccc(C(F)(F)F)cc2)C[C@H]1C`, for which the AC50 is > 100 µM (inactive). For the same compound, the AC50 under setting [1] turned out to be 49.5 µM.
Turning to `CC(C)(CC(=O)O)CC(=O)NCc1c(Cl)cccc1Sc1ccc(Cl)cc1`, the AC50 under setting [1] was more than 100 µM.
As to `Cc1cc(C)cc(NC(=O)c2cccc(NC(=O)C3C4CC5OC(=O)C3C5C4)c2)c1` (stereo unspecified), the AC50 is > 100 µM (inactive).
As to `CC(=O)N1CCOc2ccc(S(=O)(=O)N(C)c3ccc(C)cc3)cc21`, the AC50 is > 100 µM (inactive).
Consider `COc1ccccc1CN1Cc2ccccc2Oc2ccccc2S1(=O)=O`, for which the AC50 was > 100 µM (inactive).
Regarding `CCc1nnc(NS(=O)(=O)c2ccc(NC(=O)c3cccc(Cl)c3)cc2)s1`, the AC50 is > 100 µM (inactive).
Consider `Cc1cc(C(=O)Nc2cccc3c2O[C@H](CN(C)S(=O)(=O)c2ccc(Cl)cc2)[C@H](C)CN([C@H](C)CO)C3=O)n(C)n1`, for which the AC50 was > 100 µM (inactive). Moreover, the AC50 under setting [1] was determined as 27.8 µM.
Turning to `Cc1cccc(CN2C(=O)c3ccccc3Sc3ccc(C(=O)O)cc32)c1`, the AC50 under setting [1] is more than 100 µM.
Under setting [1], `CCC(C)c1ccccc1NC(=O)c1cccc(-n2cnnn2)c1` (stereo unspecified) gave an AC50 of more than 100 µM.
Turning to `COc1ccc(CNS(=O)(=O)c2ccc3c(c2)NC(=O)C(C)S3)cc1` (stereo unspecified), the AC50 is > 100 µM (inactive).
Under setting [1], `COC(=O)c1cc2c(c3c4cc(F)ccc4n(S(=O)(=O)c4cccc(C)c4)c13)C(=O)N(Cc1ccco1)C2` registered an AC50 of more than 100 µM.
With `CCN(CC)S(=O)(=O)c1cccc(NC(=O)CNc2cccc(S(=O)(=O)N3CCCC3)c2)c1`, the AC50 is > 100 µM (inactive).
`COc1cc(C(N)=O)cc(Br)c1OCc1ccccc1`: the AC50 was > 100 µM (inactive).
Compound `CCOC(=O)C(CC)Sc1cc(C)nc2ccc(OC)cc12` (stereo unspecified) registered an AC50 under setting [1] of more than 100 µM.
For `CCCN(CC1CC1)C(=O)CSc1ncnc2sccc12`, the AC50 was > 100 µM (inactive).
For the compound `O=C(Cc1cccc(NC(=O)C2CCN(C(=O)C3CCCCC3)CC2)c1)Nc1cccc(C(=O)N2CCCC2)c1`, the AC50 was > 100 µM (inactive). For the same compound, the AC50 under setting [1] is more than 100 µM.
In the case of `O=c1[nH]c(C2CCCN(S(=O)(=O)c3ccccc3Cl)C2)nc2c1nnn2Cc1ccc2c(c1)OCCO2` (stereo unspecified), the AC50 was > 100 µM (inactive).
`CCCN1C(=O)C(O)(c2c(C)[nH]c3ccccc23)c2ccccc21` (stereo unspecified) displayed an AC50 under setting [1] of more than 100 µM.
With `Clc1ccc(-c2nc3ccc(Br)cn3c2Cc2ccsc2)cc1`, the AC50 was > 100 µM (inactive). The compound further had an AC50 under setting [1] of 35 µM.
For `CCCCCCCNC(=O)c1ccc(N2CCC3(CC2)OCCO3)c([N+](=O)[O-])c1`, the AC50 under setting [1] worked out at 40.4 µM.
`CCN(CC)c1nc(Oc2ccc(C(=O)OC)cc2)nc(N2CCOCC2)n1` yielded an AC50 under setting [1] of more than 100 µM.
With `C[C@@H]1CN([C@@H](C)CO)C(=O)c2cc(NC(=O)C3CC3)ccc2O[C@H]1CN(C)C(=O)Nc1ccc(C(F)(F)F)cc1`, the AC50 is > 100 µM (inactive).
In the case of `O=C1C(c2ccccc2)c2ccccc2N1Cc1ccccc1` (stereo unspecified), the AC50 is > 100 µM (inactive).
On to `CC[N+](CC)(CC#Cc1ccccc1)CC#Cc1ccccc1`, for which the AC50 is > 100 µM (inactive). Under setting [1], this compound came in with an AC50 of more than 100 µM.
As to `CCOC(=O)c1sc(Nc2cccc(Cl)c2)nc1C`, the AC50 under setting [1] is more than 100 µM.
In the case of `CCN(CC)CCN(C(=O)c1ccc2c(c1)CCCC2)c1nc2ccc(F)cc2s1`, the AC50 is > 100 µM (inactive). Besides, the AC50 under setting [1] is 46.3 µM.
`COc1cc2nc(Nc3ccc(F)cc3)nc(N)c2cc1OC`: the AC50 was > 100 µM (inactive).
Turning to `O=C(COC(=O)C1CC2C=CC1C2)Nc1ccc([N+](=O)[O-])cc1` (stereo unspecified), the AC50 under setting [1] is more than 100 µM.
As to `CC(=O)Nc1ccc2nc3ccccc3nc2c1`, the AC50 is > 100 µM (inactive). Moreover, the AC50 under setting [1] was more than 100 µM.
With `COc1ccc(OC2C(=O)N(Cc3ccc4c(c3)OCO4)C2c2cccs2)cc1` (stereo unspecified), the AC50 was > 100 µM (inactive).
In the case of `COCCN(C(=O)c1ccccc1F)c1nnc(-c2ccc(OC)cc2)s1`, the AC50 is > 100 µM (inactive). Under setting [1], this compound yielded an AC50 of more than 100 µM.
On to `Cc1c(Cc2ccccc2)sc(NC(=O)Cc2ccccc2)c1C(N)=O`, for which the AC50 is > 100 µM (inactive).
As for `COc1ccc(OCC(=O)N2c3ccccc3CC2C)c([N+](=O)[O-])c1` (stereo unspecified), the AC50 was > 100 µM (inactive). Under setting [1], this compound displayed an AC50 of more than 100 µM.
`NS(=O)(=O)c1cc(C(=O)OCC(=O)Nc2ccccc2[N+](=O)[O-])ccc1Cl`: the AC50 under setting [1] was more than 100 µM.
Regarding `FC(F)(F)c1ccc(Cl)c(-n2c(Cc3cccs3)n[nH]c2=S)c1`, the AC50 was > 100 µM (inactive).
Consider `CNC(=O)c1ccsc1NC(=O)c1ccc(S(=O)(=O)N2CCc3ccccc32)cc1`, for which the AC50 under setting [1] is more than 100 µM.
In the case of `N#Cc1cccc(-c2ccc3c(c2)[C@H]2[C@H](CCN2C(=O)c2ccccc2F)[C@H](CO)N3)c1`, the AC50 was > 100 µM (inactive).
`C=CCNc1ccc2c(c1)OC[C@H](CC(C)C)NS2(=O)=O` showed an AC50 under setting [1] of more than 100 µM.
As for `CCc1ccc2[nH]c(C(=O)Nc3ccc4c(c3)OCO4)cc2c1`, the AC50 was > 100 µM (inactive).
`O=C(NCCCn1ccnc1)c1sc2cc([N+](=O)[O-])ccc2c1Cl` returned an AC50 under setting [1] of more than 100 µM.
As to `CCC(=O)Nc1nc2ccc(NC(=O)c3cc(OC)c(OC)c(OC)c3)cc2s1`, the AC50 is > 100 µM (inactive).
`Cc1cccc(CSCC(=O)N2CCN(S(=O)(=O)c3ccccc3C#N)CC2)c1`: the AC50 was > 100 µM (inactive).
Take `COc1ccc(C(=O)N(c2ccccc2)c2nccc3ccccc23)cc1OC`: the AC50 is > 100 µM (inactive).
Same read-out and setting: the figure for `Cc1nn2c(NCc3ccccn3)cc(C(C)C)nc2c1-c1ccccc1` is > 100 µM (inactive).
Consider `CCOc1ccc(N(CC(=O)NC(C(C)C)C(C)C)S(=O)(=O)c2ccc(OC)c(OC)c2)cc1`, for which the AC50 was > 100 µM (inactive). For the same compound, the half-maximal activity concentration (AC50) under setting [1] amounted to 50.9 µM.
For `O=C(CSCc1c(Cl)cccc1Cl)Nc1cccnc1`, the AC50 is > 100 µM (inactive). Under setting [1], this compound displayed an AC50 of more than 100 µM.
`Cc1cc(C(N)=O)nn1-c1c(Cl)cc(Cl)cc1Cl` registered an AC50 under setting [1] of more than 100 µM.
For the compound `O=C(Nc1cccc(Cl)c1)N1C[C@@H]2[C@H](c3ccccc31)[C@@H](CO)N2CC1CCCCC1`, the AC50 was > 100 µM (inactive). The AC50 under setting [1] stood at 50 µM.
The compound `O=S1(=O)N[C@H](Cc2ccccc2)COc2cc(N3CCSCC3)ccc21` returned an AC50 under setting [1] of more than 100 µM.
Under setting [1], `COc1ccc(NC(=O)CN(c2ccccc2OC)S(=O)(=O)c2cccs2)cc1Cl` came in with an AC50 of more than 100 µM.

As a reminder, the AC50 is the midpoint of the concentration-response curve, whichever way the signal moves.

For the origin of these results see PubChem BioAssay AID977622 (Broad Institute, 2014).
